In US20070275025A1, “Combustible Mosquito Coil or Stick” (RECKITT BENCKISER (AUSTRALIA) PTY LIMITED, priority 2003, published 2007):
Read-outs that look alike come from different tables or passages of the source.

Legend:
Aedes aegypti = test: Burning coil trial in ventilated 20 cubic metre test chamber with human subject: landing/bite inhibition, knockdown, 24 hour mortality; assay type: in vivo; details: for % KD (15 mins) / 24 hour % mortality (15 mins exposure): 15 minutes exposure; for 24 hour % mortality (15 mins exposure): dead after 24 hours; for % bite inhibition / % landing inhibition: assessed 10 to 15 minutes exposure
Protocol: A combustible coil according to the present invention containing bifenthrin was compared with coils containing other pyrethroid active ingredients (d-allethrin, d-phenothrin, imiprothrin, permethrin, cypermethrin, bioresmethrin, deltamethrin) as indicated in Table 2. All coils contained active ingredients in an amount that rendered them similar in cost to the current leading d-allethrin coils. The range of actives covered both knockdown and residual pyrethroids. The trial was carried out against the Dengue mosquito (Aedes aegypti). The methodology employed is as follows:
The study was conducted in a ventilated test chamber (20 cubic metres) at a temperature of between 27° C. and 28.7° C. The relative humidity was ambient and ranged from 51% to 58%.
Mixed sex adult 6 to 10 day old Dengue mosquitoes (Aedes aegypti) were used in this study. There were 50 female mosquitoes released per replicate and a variable number of male mosquitoes. The mosquitoes were collected and immobilised. Male and female mosquitoes were added to a container until 50 female mosquitoes were obtained. Because only female mosquitoes bite human subjects, the number of males present in each trial was irrelevant. The mosquitoes were allowed to recover for at least one hour before being used for testing.
A positive air flow of 0.4 metres/second was generated into the chamber and air was passively vented from the chamber.
Coil treatments were placed on the floor in the test chamber, and were allowed to burn for 5 minutes before all mosquitoes were brought into the chamber and released. The coils continued to operate during the assessments and were stopped at the completion of the test period.
Starting from 10 minutes after the mosquitoes were released, an assessment was made by one human subject of the mosquito landings and bites over a 5 minute period. Whilst seated in the chamber, the subject recorded the total number of females that initiated a bite on the subject's legs, as well as the number of females that landed without initiating biting. Mosquitoes were permitted to probe the subject but not permitted to bite the subject, and were chased away prior to this occurring.
Immediately after the 5 minute assessment period, the number of knocked down mosquitoes was recorded. All the mosquitoes were collected and removed from the chamber. After 24 hours, the number of dead mosquitoes was recorded. The same human subject was used for all assessments.
The results shown in the Table 2 are the means of four trials.
Percentage landing inhibition refers to the number of mosquitoes which landed on the subject in the absence of any treatment (untreated control), minus the number of mosquitoes which landed on the subject in the presence of a coil treatment, divided by the number of mosquitoes which landed on the subject in the absence of any treatment, expressed as a percentage. Landing inhibition was assessed from 10 to 15 minutes exposure of the Aedes aegypti mosquitoes to each burning coil treatment.
Percentage bite inhibition refers to the number of mosquitoes which probed or attempted to bite the subject in the absence of any treatment (untreated control), minus the number of mosquitoes which attempted to bite the subject in the presence of a coil treatment, divided by the number of mosquitoes which attempted to bite the subject in the absence of any treatment, expressed as a percentage. It will be appreciated that, as mosquitoes must first land before attempting to bite, of necessity, percentage bite inhibition will always be lower than or equal to percentage landing inhibition. Bite inhibition was assessed from 10 to 15 minutes exposure of the Aedes aegypti mosquitoes to each burning coil treatment.
Knockdown refers to mosquitoes present on the floor of the chamber after the 15 minute trial, which were either dead, moribund, or incapacitated (i.e. unable to fly off the floor of the chamber). […]

[1] = cited from earlier work
Culex quinquefasciatus = test: Burning coil trial with mosquitoes confined in a small cage in the chamber, subject's arm inserted: landing/bite inhibition, knockdown, 24 hour mortality; assay type: in vivo; details: caged Culex quinquefasciatus; for % KD (15 mins) / % bite inhibition / % landing inhibition: 15 minutes exposure
Protocol: The trial detailed in Example 2 was repeated against the much more difficult to kill Culex quinquefasciatus mosquitoes. The methodology used was similar to that employed for Aedes aegypti described above, with the following variations.
One hundred female and a variable number of male Cx. quinquefasciatus were confined in a small cage which was placed in the chamber 5 minutes after the coil treatment had been ignited. For this species of mosquito, the subject's arm was inserted into the cage for determinations of landing and biting rates. The reasons for these changes in methodology compared to those used for Ae. aegypti was because Cx. quinquefasciatus are much weaker biters. This meant that satisfactory biting rates could only be achieved by confining them to a small volume.
Percentage landing inhibition, percentage bite inhibition, percentage knockdown and percentage mortality are as defined above. […] As Cx. quinquefasciatus is a more robust mosquito species the lower level of mortality after 15 minutes exposure when compared with the Ae. aegypti mosquitoes was expected.

[2] = Comparison of physical properties of pyrethroids (The Pesticide Manual); assay type: physicochemical; details: ratio of the cited vapour pressures
From the text: The present inventors compared some physical properties of bifenthrin with those of other residual pyrethroids.

[3] = burning coil with 0.035% imiprothrin
[4] = burning coil with 0.02% bifenthrin
[5] = burning coil with 0.05% bifenthrin
[6] = burning coil with 0.10% bifenthrin
[7] = burning coil with 0.056% bioresmethrin
[8] = burning coil with 0.3% cypermethrin
[9] = burning coil with 0.07% deltamethrin
[10] = burning coil with 0.705% permethrin
[11] = burning coil with 0.25% d-allethrin
[12] = burning coil with 0.228% d-phenothrin

## C#CCN1CC(=O)N(COC(=O)[C@@H]2C(C=C(C)C)C2(C)C)C1=O (mixture of isomers) [Imiprothrin, imiprothrin]
Aedes aegypti; [3]
  % KD (15 mins): 1%
  24 hour % mortality (15 mins exposure): 7%
  % bite inhibition: 34%
  % landing inhibition: 34%
[1]; 25° C.
  Vapour Pressure: 0.0018 mPa

## Cc1c(COC(=O)[C@H]2[C@@H](/C=C(\Cl)C(F)(F)F)C2(C)C)cccc1-c1ccccc1 (racemic) [Bifenthrin, 2-methylbiphenyl-3-ylmethyl (Z)-(1RS,3RS)-3-(2-chloro-3,3,3-trifluoroprop-1-enyl)-2,2-dimethylcyclopropanecarboxylate]
Aedes aegypti; [4]
  % KD (15 mins): 15%
  24 hour % mortality (15 mins exposure): 78%
  % bite inhibition: 95%
  % landing inhibition: 80%
Aedes aegypti; [5]
  % KD (15 mins): 31%
  24 hour % mortality (15 mins exposure): 94%
  % bite inhibition: 99%
  % landing inhibition: 87%
Aedes aegypti; [6]
  % KD (15 mins): 30%
  24 hour % mortality (15 mins exposure): 96%
  % bite inhibition: 100%
  % landing inhibition: 92%
Culex quinquefasciatus; [4]
  24 hour % mortality (15 mins exposure): 9%
  % KD (15 mins): 1%
  % bite inhibition: 96%
  % landing inhibition: 86%
Culex quinquefasciatus; [5]
  24 hour % mortality (15 mins exposure): 27%
  % KD (15 mins): 3%
  % bite inhibition: 95%
  % landing inhibition: 85%
Culex quinquefasciatus; [6]
  24 hour % mortality (15 mins exposure): 39%
  % KD (15 mins): 4%
  % bite inhibition: 99%
  % landing inhibition: 86%
[1]; 25° C.
  Vapour Pressure: 0.024 mPa

## CC(C)=C[C@@H]1[C@@H](C(=O)OCc2coc(Cc3ccccc3)c2)C1(C)C [Bioresmethrin, bioresmethrin]
Aedes aegypti; [7]
  % KD (15 mins): 41%
  24 hour % mortality (15 mins exposure): 23%
  % bite inhibition: 99%
  % landing inhibition: 96%
[2]
  vapour pressure relative to bifenthrin: 775 times
[1]; 25° C.
  Vapour Pressure: 18.6 mPa

## CC1(C)C(C=C(Cl)Cl)C1C(=O)OC(C#N)c1cccc(Oc2ccccc2)c1 (stereo not drawn) [Cypermethrin, cypermethrin]
Aedes aegypti; [8]
  % KD (15 mins): 10%
  24 hour % mortality (15 mins exposure): 56%
  % bite inhibition: 73%
  % landing inhibition: 70%
[1]; 20° C.
  Vapour Pressure: 0.0002 mPa

## CC1(C)[C@H](C(=O)O[C@H](C#N)c2cccc(Oc3ccccc3)c2)[C@@H]1C=C(Br)Br [Deltamethrin, deltamethrin]
Aedes aegypti; [9]
  % KD (15 mins): 0%
  24 hour % mortality (15 mins exposure): 12%
  % bite inhibition: 57%
  % landing inhibition: 57%
[1]; 25° C.
  Vapour Pressure: 0.0000124 mPa

## CC1(C)C(C=C(Cl)Cl)C1C(=O)OCc1cccc(Oc2ccccc2)c1 (stereo not drawn) [Permethrin, permethrin]
Aedes aegypti; [10]
  % KD (15 mins): 35%
  24 hour % mortality (15 mins exposure): 55%
  % bite inhibition: 85%
  % landing inhibition: 8%
[1]; 20° C.
  Vapour Pressure: 0.0025 mPa

## C=CCC1=C(C)C(OC(=O)C2C(C=C(C)C)C2(C)C)CC1=O (stereo not drawn) [d-Allethrin, d-allethrin]
Aedes aegypti; [11]
  % KD (15 mins): 35%
  24 hour % mortality (15 mins exposure): 7%
  % bite inhibition: 100%
  % landing inhibition: 98%
Aedes aegypti; burning coil with 0.25% d-allethrin, listed as d-allethrin
  24 hour % mortality (15 mins exposure): no different from the untreated control
Culex quinquefasciatus; [11]
  24 hour % mortality (15 mins exposure): 2%
  % KD (15 mins): 7%
  % bite inhibition: 94%
  % landing inhibition: 87%
[1]; 21° C.
  Vapour Pressure: 0.16 mPa

## CC(C)=CC1C(C(=O)OCc2cccc(Oc3ccccc3)c2)C1(C)C (stereo not drawn) [d-Phenothrin, d-phenothrin]
Aedes aegypti; [12]
  % KD (15 mins): 39%
  24 hour % mortality (15 mins exposure): 24%
  % bite inhibition: 100%
  % landing inhibition: 98%
[1]; 21.4° C.
  Vapour Pressure: 0.019 mPa
